Source: paper PMC12745320 (2025)

Experiments:
[1] = test system: PTL-1 (DNA, aptamer) GACGACGGCCAAGCTAACGGCTGCTAAGCATGTGGAGTCGTC; test: ThT fluorescence displacement; settings: 150 mM NaCl, 5 mM MgCl2 (main text; supplement: 2.0 mM MgCl2); 10 mM MES (supplement: 20 mM), pH 6.0; ThT displaced; tested at 200 μM
[2] = test system: PTL-1 (DNA, aptamer) GACGACGGCCAAGCTAACGGCTGCTAAGCATGTGGAGTCGTC; test: ThT fluorescence; settings: 150 mM NaCl, 5 mM MgCl2 (main text; supplement: 2.0 mM MgCl2); 10 mM MES (supplement: 20 mM), pH 6.0; 1.0 μM aptamer, 2.0 μM ThT; described as non-specific binding
[3] = test system: PTL-1 (DNA, aptamer) GACGACGGCCAAGCTAACGGCTGCTAAGCATGTGGAGTCGTC; test: ITC; settings: 150 mM NaCl, 5 mM MgCl2 (main text; supplement: 2.0 mM MgCl2); 10 mM MES (supplement: 20 mM), pH 6.0, 25 °C; 20 μM aptamer
[4] = test system: PTL-1a (DNA, aptamer) GACGACTCCAAGAATCCGGCTGCTAAGCATGTGGAGTCGTC; test: ITC; settings: 150 mM NaCl, 5 mM MgCl2 (main text; supplement: 2.0 mM MgCl2); 10 mM MES (supplement: 20 mM), pH 6.0, 25 °C; typically 1.0 mM PTL in syringe
[5] = test system: PTL-1b (DNA, aptamer) GACGACGGCGAAGCTAACGGCTGCTAAGCATGTCGAGTCGTC; test: ITC; settings: 150 mM NaCl, 5 mM MgCl2 (main text; supplement: 2.0 mM MgCl2); 10 mM MES (supplement: 20 mM), pH 6.0, 25 °C; typically 1.0 mM PTL in syringe
[6] = test system: PTL-1c (DNA, aptamer) GACGACGGCCAAGAATCCGGCTGCTAAGCATGTGGAGTCGTC; test: ITC; settings: 150 mM NaCl, 5 mM MgCl2 (main text; supplement: 2.0 mM MgCl2); 10 mM MES (supplement: 20 mM), pH 6.0, 25 °C; typically 1.0 mM PTL in syringe
[7] = test system: PTL-1 (DNA, aptamer) GACGACGGCCAAGCTAACGGCTGCTAAGCATGTGGAGTCGTC; test: ThT fluorescence displacement titration; settings: 150 mM NaCl, 5 mM MgCl2 (main text; supplement: 2.0 mM MgCl2), 10 mM MES (supplement: 20 mM), pH 6.0, ThT 2.0 μM displaced, 1.0 μM aptamer

| Compound | binding [1] | further results |
| --- | --- | --- |
| C=C1[C@@H](O)[C@@H]2O[C@]3(CC[C@H](/C=C/[C@@H](C)[C@@H]4CC(C)=C[C@@]5(O[C@H](C[C@@](C)(O)C(=O)O)CC[C@H]5O)O4)O3)CC[C@H]2O[C@@H]1[C@@H](O)C[C@H](C)[C@H]1O[C@@]2(CCCCO2)CC[C@H]1C | no | – |
| CC1(C)S[C@@H]2[C@H](NC(=O)Cc3ccccc3)C(=O)N2[C@H]1C(=O)O | no | – |
| CC1(C)S[C@@H]2[C@H](NC(=O)[C@H](N)c3ccccc3)C(=O)N2[C@H]1C(=O)O | no | – |
| CS(=O)(=O)c1ccc([C@@H](O)[C@@H](CO)NC(=O)C(Cl)Cl)cc1 | no | – |
| C[C@@H]1C[C@H]2[C@@H]3CCC4=CC(=O)C=C[C@]4(C)[C@@]3(F)[C@@H](O)C[C@]2(C)[C@@]1(O)C(=O)CO | no | – |
| C[C@H]1CCCC(=O)CCC/C=C/c2cc(O)cc(O)c2C(=O)O1 | no | – |
| Cc1ccc2c(c1)sc(-c1ccc(N(C)C)cc1)[n+]2C | – | binding [2]: yes |
| Cc1ncc([N+](=O)[O-])n1CCO | no | – |
| NC(=O)N1c2ccccc2C=Cc2ccccc21 | no | – |
| Nc1ccc(S(=O)(=O)Nc2cnc3ccccc3n2)cc1 | no | – |
| O=C1C=C2C(=CCOC2O)O1 (stereo not shown) | – | Kd [3]: 12.5 µM; binding [4]: no; binding [5]: no; binding [6]: no; apparent Kd [7]: 18.4 µM |

More lines, main results first:

| binding [1] | Compound | further results |
| --- | --- | --- |
| no | CCCC[C@@H](C)[C@@H](OC(=O)C[C@@H](CC(=O)O)C(=O)O)[C@H](C[C@@H](C)C[C@H](O)CCCC[C@@H](O)C[C@H](O)[C@H](C)N)OC(=O)C[C@@H](CC(=O)O)C(=O)O | – |
| no | COc1cc(NS(=O)(=O)c2ccc(N)cc2)nc(OC)n1 | – |
| no | C[C@@H]1Cc2c(Cl)cc(C(=O)N[C@@H](Cc3ccccc3)C(=O)O)c(O)c2C(=O)O1 | – |
| no | O=C(N[C@H](CO)[C@H](O)c1ccc([N+](=O)[O-])cc1)C(Cl)Cl | – |
